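Five compound concentrations were applied to cells in 96-well plates for 48 hours; endpoints were derived by simple linear interpolation of the resulting dose-response curve. At the TGI there is no net growth.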
Tests used:
Assay in all cases: NCI anticancer screen, dose series, 48 h
NCI-H460 lung = tested on: NCI-H460 lung
SK-MEL-2 melanoma = tested on: SK-MEL-2 melanoma
A498 renal = tested on: A498 renal
HOP-92 NSCLC = tested on: HOP-92 NSCLC
UACC-62 melanoma = tested on: UACC-62 melanoma
ACHN renal = tested on: ACHN renal
OVCAR-5 ovarian = tested on: OVCAR-5 ovarian
BT-549 breast = tested on: BT-549 breast
DU-145 prostate = tested on: DU-145 prostate
786-0 renal = tested on: 786-0 renal
SR leukemia = tested on: SR leukemia
SK-OV-3 ovarian = tested on: SK-OV-3 ovarian
SN12C renal = tested on: SN12C renal
T-47D breast = tested on: T-47D breast
SW-620 colon = tested on: SW-620 colon
OVCAR-3 ovarian = tested on: OVCAR-3 ovarian
IGROV1 ovarian = tested on: IGROV1 ovarian
MCF7 breast = tested on: MCF7 breast
NCI-H23 lung = tested on: NCI-H23 lung
SNB-19 CNS = tested on: SNB-19 CNS
MDA-MB-231 breast = tested on: MDA-MB-231 breast
CCRF-CEM leukemia = tested on: CCRF-CEM leukemia
HL-60(TB) leukemia = tested on: HL-60(TB) leukemia
MOLT-4 leukemia = tested on: MOLT-4 leukemia
HT29 colon = tested on: HT29 colon
OVCAR-8 ovarian = tested on: OVCAR-8 ovarian
A549 NSCLC = tested on: A549 NSCLC
LOX IMVI melanoma = tested on: LOX IMVI melanoma
COLO 205 colon = tested on: COLO 205 colon
SK-MEL-5 melanoma = tested on: SK-MEL-5 melanoma
HS 578T breast = tested on: HS 578T breast
OVCAR-4 ovarian = tested on: OVCAR-4 ovarian
M14 melanoma = tested on: M14 melanoma
KM12 colon = tested on: KM12 colon
SF-268 CNS = tested on: SF-268 CNS
K-562 leukemia = tested on: K-562 leukemia
HCC-2998 colon = tested on: HCC-2998 colon
HCT-15 colon = tested on: HCT-15 colon
UACC-257 melanoma = tested on: UACC-257 melanoma
UO-31 renal = tested on: UO-31 renal
TK-10 renal = tested on: TK-10 renal
SF-295 CNS = tested on: SF-295 CNS
RPMI-8226 leukemia = tested on: RPMI-8226 leukemia
SK-MEL-28 melanoma = tested on: SK-MEL-28 melanoma
MDA-MB-435 = tested on: MDA-MB-435
U251 CNS = tested on: U251 CNS
MDA-N = tested on: MDA-N
MALME-3M melanoma = tested on: MALME-3M melanoma
PC-3 prostate = tested on: PC-3 prostate
NCI/ADR-RES ovarian = tested on: NCI/ADR-RES ovarian
CAKI-1 renal = tested on: CAKI-1 renal
EKVX NSCLC = tested on: EKVX NSCLC
NCI-H226 lung = tested on: NCI-H226 lung
RXF 393 renal = tested on: RXF 393 renal
SF-539 CNS = tested on: SF-539 CNS
HCT-116 colon = tested on: HCT-116 colon
HOP-62 NSCLC = tested on: HOP-62 NSCLC
SNB-75 CNS = tested on: SNB-75 CNS
NCI-H522 lung = tested on: NCI-H522 lung

Measured: TGI

COC(=O)/C=C/c1cc(OC)c2oc(-c3ccc(OC)c(OC)c3)c(C(=O)OC)c2c1
not listed: NCI-H226 lung | RXF 393 renal | SF-539 CNS | HCT-116 colon | HOP-62 NSCLC | SNB-75 CNS | NCI-H522 lung
> 100 µM: all other assays above

O=S(=O)(O)c1cc(O)c2c(O)c(N=Nc3cccc4ccccc34)c(S(=O)(=O)O)cc2c1
not listed: NCI-H460 lung | CCRF-CEM leukemia | HL-60(TB) leukemia | HCC-2998 colon
> 100 µM: all other assays above

— PubChem BioAssay (NCI)
